Source: patent US11078216B2, “Bisaryl amides as NRF2 activators” (GLAXOSMITHKLINE INTELLECTUAL PROPERTY DEVELOPMENT LIMITED, priority 2016, dated 2021)

Test system: NRF2 (NQO1 activity as marker for NRF2 activation), BEAS-2B cells
Assay: BEAS-2B NQO1 MTT Assay
Format: cell-based
Settings: Homo sapiens, EC50 of NQO1 specific activity induction, 48 hours incubation, read-out: EC50
Procedure, shortened: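 BEAS-2B cells were exposed to compound for 48 h at 37° C, 5% CO2, then lysed. NQO1 activity was measured kinetically by MTT reduction at 570 nm over 30 minutes; EC50 came from 3-parameter fit of Delta OD/min versus log concentration.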

Structure (SMILES)	EC50
CC[C@@H]1CN(Cc2cc([C@@H](c3ccc4c(nnn4CC)c3C)C(C)(C)N(C)C(=O)c3cncnc3)ccc2C)S(=O)(=O)c2ccccc2O1 [Example 167, N—((S)-1-(3-(((R)-4-Ethyl-1,1-dioxido-3,4-dihydro-2H-benzo[b][1,4,5]oxathiazepin-2-yl)methyl)-4-methylphenyl)-1-(1-ethyl-4-methyl-1H-benzo[d][1,2,3]triazol-5-yl)-2-methylpropan-2-yl)-N-methylpyrimidine-5-carboxamide]	10 to 100 nM
CC[C@@H]1CN(Cc2cc([C@H](CC(=O)N(C)c3cccnc3)c3ccc4c(nnn4CC)c3C)ccc2C)S(=O)(=O)c2cccnc2O1 [Example 169, (S)-3-(3-(((R)-4-ethyl-1,1-dioxido-3,4-dihydro-2H-pyrido[2,3-b][1,4,5]oxathiazepin-2-yl)methyl)-4-methylphenyl)-3-(1-ethyl-4-methyl-1H-benzo[d][1,2,3]triazol-5-yl)-N-methyl-N-(pyridin-3-yl)propanamide]	100 to 1000 nM
CC[C@@H]1CN(Cc2cc([C@H](CC(=O)Nc3ccccc3)c3ccc4c(nnn4CC)c3C)ccc2C)S(=O)(=O)c2cccnc2O1 [Example 170, (S)-3-(3-(((R)-4-ethyl-1,1-dioxido-3,4-dihydro-2H-pyrido[2,3-b][1,4,5]oxathiazepin-2-yl)methyl)-4-methylphenyl)-3-(1-ethyl-4-methyl-1H-benzo[d][1,2,3]triazol-5-yl)-N-phenylpropanamide]	100 to 1000 nM
CC[C@@H]1CN(Cc2cc([C@H](CC(=O)NC3CCCC3)c3ccc4c(nnn4CC)c3C)ccc2C)S(=O)(=O)c2cccnc2O1 [Example 171, (S)-N-cyclopentyl-3-(3-(((R)-4-ethyl-1,1-dioxido-3,4-dihydro-2H-pyrido[2,3-b][1,4,5]oxathiazepin-2-yl)methyl)-4-methylphenyl)-3-(1-ethyl-4-methyl-1H-benzo[d][1,2,3]triazol-5-yl)propanamide]	100 to 1000 nM
CC[C@@H]1CN(Cc2cc([C@H](CC(=O)Nc3ccc(OC)nc3)c3ccc4c(nnn4CC)c3C)ccc2C)S(=O)(=O)c2cccnc2O1 [Example 172, (S)-3-(3-(((R)-4-ethyl-1,1-dioxido-3,4-dihydro-2H-pyrido[2,3-b][1,4,5]oxathiazepin-2-yl)methyl)-4-methylphenyl)-3-(1-ethyl-4-methyl-1H-benzo[d][1,2,3]triazol-5-yl)-N-(6-methoxypyridin-3-yl)propanamide]	100 to 1000 nM
Cc1ccc([C@@H](c2ccc3c(nnn3C)c2C)C(C)(C)C(=O)Nc2cccnc2)cc1Cn1ccnc1CC1CCCCCC1 [Example 173, (S)-3-(3-((2-(cycloheptylmethyl)-1H-imidazol-1-yl)methyl)-4-methylphenyl)-3-(1,4-dimethyl-1H-benzo[d][1,2,3]triazol-5-yl)-2,2-dimethyl-N-(pyridin-3-yl)propanamide]	10 to 100 nM
CCn1nnc2c(C)c([C@@H](CC(=O)Nc3cccnc3)c3ccc(C)c(CN4C[C@@H](C)Cc5ccc(C(F)(F)F)cc5S4(=O)=O)c3)ccc21 [Example 174, (S)-3-(1-ethyl-4-methyl-1H-benzo[d][1,2,3]triazol-5-yl)-3-(4-methyl-3-(((S)-4-methyl-1,1-dioxido-8-(trifluoromethyl)-4,5-dihydrobenzo[f][1,2]thiazepin-2(3H)-yl)methyl)phenyl)-N-(pyridin-3-yl)propanamide]	10 to 100 nM
CCC1CCN(Cc2nccn2Cc2cc([C@@H](c3ccc4c(nnn4C)c3C)C(C)(C)C(=O)Nc3cccnc3)ccc2Cl)CC1 [Example 175, (S)-3-(4-chloro-3-((2-((4-ethylpiperidin-1-yl)methyl)-1H-imidazol-1-yl)methyl)phenyl)-3-(1,4-dimethyl-1H-benzo[d][1,2,3]triazol-5-yl)-2,2-dimethyl-N-(pyridin-3-yl)propanamide]	100 to 1000 nM
CC[C@@H]1CN(Cc2cc([C@@H](c3ccc4c(nnn4CC)c3C)[C@@H](C)C(=O)Nc3cccnc3)ccc2C)S(=O)(=O)c2cccnc2O1 [Example 176]	1 to 10 nM
CCn1nnc2c(C)c([C@H](c3ccc(C)c(CN4C[C@@H](C)Cc5cc(C(F)(F)F)ccc5S4(=O)=O)c3)[C@@H](C)C(=O)Nc3cccnc3)ccc21 [Example 177, (2R,3S)-3-(1-ethyl-4-methyl-1H-benzo[d][1,2,3]triazol-5-yl)-2-methyl-3-(4-methyl-3-(((S)-4-methyl-1,1-dioxido-7-(trifluoromethyl)-4,5-dihydrobenzo[f][1,2]thiazepin-2(3H)-yl)methyl)phenyl)-N-(pyridin-3-yl)propanamide]	1 to 10 nM
CCn1nnc2c(C)c([C@@H](CC(=O)Nc3cccnc3)c3ccc(C)c(CN4C[C@@H](C)Cc5ccc(F)cc5S4(=O)=O)c3)ccc21 [Example 178, (S)-3-(1-ethyl-4-methyl-1H-benzo[d][1,2,3]triazol-5-yl)-3-(3-(((S)-8-fluoro-4-methyl-1,1-dioxido-4,5-dihydrobenzo[f][1,2]thiazepin-2(3H)-yl)methyl)-4-methylphenyl)-N-(pyridin-3-yl)propanamide]	10 to 100 nM
CCn1nnc2c(C)c([C@H](c3ccc(C)c(CN4C[C@@H](C)Cc5ccc(C(F)(F)F)cc5S4(=O)=O)c3)[C@@H](C)C(=O)Nc3cccnc3)ccc21 [Example 179, (2R,3S)-3-(1-ethyl-4-methyl-1H-benzo[d][1,2,3]triazol-5-yl)-2-methyl-3-(4-methyl-3-(((S)-4-methyl-1,1-dioxido-8-(trifluoromethyl)-4,5-dihydrobenzo[f][1,2]thiazepin-2(3H)-yl)methyl)phenyl)-N-(pyridin-3-yl)propanamide]	1 to 10 nM
CC[C@H]1Cc2ccc(C(F)(F)F)cc2S(=O)(=O)N(Cc2cc([C@@H](c3ccc4c(nnn4CC)c3C)[C@@H](C)C(=O)Nc3cccnc3)ccc2C)C1 [Example 180, (2R,3S)-3-(3-(((S)-4-ethyl-1,1-dioxido-8-(trifluoromethyl)-4,5-dihydrobenzo[f][1,2]thiazepin-2(3H)-yl)methyl)-4-methylphenyl)-3-(1-ethyl-4-methyl-1H-benzo[d][1,2,3]triazol-5-yl)-2-methyl-N-(pyridin-3-yl)propanamide]	1 to 10 nM
CCn1nnc2c(C)c([C@@H](CC(=O)Nc3cccnc3)c3ccc(C)c(CN4C[C@@H](C)Cc5ccc(C(F)(F)F)cc5S4(=O)=O)c3)cc(OC)c21 [Example 181, (S)-3-(1-ethyl-7-methoxy-4-methyl-1H-benzo[d][1,2,3]triazol-5-yl)-3-(4-methyl-3-(((S)-4-methyl-1,1-dioxido-8-(trifluoromethyl)-4,5-dihydrobenzo[f][1,2]thiazepin-2(3H)-yl)methyl)phenyl)-N-(pyridin-3-yl)propanamide]	10 to 100 nM
CC[C@@H]1CN(Cc2cc([C@@H](c3ccc4c(nnn4CC)c3C)[C@@H](C)C(N)=O)ccc2C)Cc2ncccc2O1 [Example 182, (2R,3S)-3-(3-(((R)-2-ethyl-2,3-dihydropyrido[2,3-f][1,4]oxazepin-4(5H)-yl)methyl)-4-methylphenyl)-3-(1-ethyl-4-methyl-1H-benzo[d][1,2,3]triazol-5-yl)-2-methylpropanamide]	100 to 1000 nM
CC[C@H]1Cc2cccc(C(F)(F)F)c2CN(Cc2cc([C@@H](c3ccc4c(nnn4CC)c3C)C(C)(C)C(N)=O)ccc2C)C1 [Example 183, (S)-3-(1-ethyl-4-methyl-1H-benzo[d][1,2,3]triazol-5-yl)-3-(3-(((S)-4-ethyl-9-(trifluoromethyl)-4,5-dihydro-1H-benzo[c]azepin-2(3H)-yl)methyl)-4-methylphenyl)-2,2-dimethylpropanamide]	100 to 1000 nM
CC[C@@H]1CN(Cc2cc([C@@H](c3ccc4c(nnn4CC)c3C)C(C)(C)C(N)=O)ccc2C)Cc2ncccc2O1 [Example 184, (S)-3-(3-(((R)-2-ethyl-2,3-dihydropyrido[2,3-f][1,4]oxazepin-4(5H)-yl)methyl)-4-methylphenyl)-3-(1-ethyl-4-methyl-1H-benzo[d][1,2,3]triazol-5-yl)-2,2-dimethylpropanamide]	100 to 1000 nM
CC[C@@H]1CN(Cc2cc([C@@H](CCc3cn(C4CCC4)nn3)C(C)(C)C(N)=O)ccc2Cl)S(=O)(=O)c2ccccc2O1 [Example 185, (R)-3-(4-chloro-3-(((R)-4-ethyl-1,1-dioxido-3,4-dihydro-2H-benzo[b][1,4,5]oxathiazepin-2-yl)methyl)phenyl)-5-(1-cyclobutyl-1H-1,2,3-triazol-4-yl)-2,2-dimethylpentanamide]	100 to 1000 nM
CC[C@@H]1CN(Cc2cc([C@@H](c3ccc4c(nnn4CC)c3C)C(C)(C)C(=O)Nc3cnc(CO[Si](C)(C)C(C)(C)C)nc3)ccc2C)S(=O)(=O)c2ccccc2O1 [Example 186, (S)—N-(2-(((tert-Butyldimethylsilyl)oxy)methyl)pyrimidin-5-yl)-3-(3-(((R)-4-ethyl-1,1-dioxido-3,4-dihydro-2H-benzo[b][1,4,5]oxathiazepin-2-yl)methyl)-4-methylphenyl)-3-(1-ethyl-4-methyl-1H-benzo[d][1,2,3]triazol-5-yl)-2,2-dimethylpropanamide]	100 to 1000 nM
CC[C@@H]1CN(Cc2cc([C@@H](c3ccc4c(nnn4CC)c3C)C(C)(C)C(=O)Nc3cnc(C(C)(C)O[Si](C)(C)C(C)(C)C)nc3)ccc2C)S(=O)(=O)c2ccccc2O1 [Example 187, (S)-N-(2-(2-((tert-Butyldimethylsilyl)oxy)propan-2-yl)pyrimidin-5-yl)-3-(3-(((R)-4-ethyl-1,1-dioxido-3,4-dihydro-2H-benzo[b][1,4,5]oxathiazepin-2-yl)methyl)-4-methylphenyl)-3-(1-ethyl-4-methyl-1H-benzo[d][1,2,3]triazol-5-yl)-2,2-dimethylpropanamide]	1000 to 10000 nM
CC[C@@H]1CN(Cc2cc([C@@H](c3ccc4c(nnn4CC)c3C)C(C)(C)C(=O)Nc3cnc(CNC(=O)OC(C)(C)C)nc3)ccc2C)S(=O)(=O)c2ccccc2O1 [Example 188, tert-Butyl ((5-((S)-3-(3-(((R)-4-ethyl-1,1-dioxido-3,4-dihydro-2H-benzo[b][1,4,5]oxathiazepin-2-yl)methyl)-4-methylphenyl)-3-(1-ethyl-4-methyl-1H-benzo[d][1,2,3]triazol-5-yl)-2,2-dimethylpropanamido)pyrimidin-2-yl)methyl)carbamate]	10 to 100 nM
